test system: brains, heart, liver, muscle, and DRG of the NHPs; assay: Maturation of TTM-001 and TTM-002 capsids, NGS enrichment in NHP tissues; type: in vivo; settings: NGS fold-enrichment of RNA, NHP brain, relative to AAV9 control
How it was run: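 Variants carry mutations within and flanking the loop IV peptide insert: positions 450–466 were triplet-randomized, while positions 449–466 received low-frequency point mutations. The combined pool went into two NHPs, and each peptide was scored by NGS enrichment ratio against AAV9.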

Sequence | Fold Enrichment relative to AAV9, Brain (NHP) [fold]
KTIDGGGSPHSKAQNKQT | 85.019
KTTNGQDSPHKSGQNQQS | 92.419
KTVNGSGSPHSKTQSQQT | 115.086

same assay, conditions: NGS fold-enrichment of matured AAV capsid variants; NHP brain, RNA; relative to AAV9 control

Sequence | Fold Enrichment relative to AAV9, Brain (NHP) [fold]
KTDRTSGSPHSKAQNQQT | 56.466
KTINGSGSPHSKAQVPPT | 57.316
KEVVGSGSPHSKAQNQQT | 56.371
KTINGSGSPHSKAQLHHT | 56.815
KTEDLSGSPHSKAQNQQT | 54.156
KAINRSGSPHSKAQDQQT | 51.262
KTINGSGSPHSKLKSQQT | 50.368
KSINGGGSPHSKAQYQQT | 54.612

same assay, conditions: NGS fold-enrichment, DRG of NHPs, relative to AAV9 control

Sequence | Fold Enrichment relative to AAV9, DRG (NHP) [fold]
KTIDGGGSPHSKAQNKQT | 0.000
KTINGSGSPHSKAQYQHA | 0.000
KTINGSGSPHSKSQNQHI | 0.000
KTVNGSGSPHSKTQSQQT | 0.000

same assay, conditions: NGS fold-enrichment, NHP DRG, relative to AAV9 control

Sequence | Fold Enrichment relative to AAV9, DRG (NHP) [fold]
KTIDGGGSPHSKAQNKQT | 0.000
KTTNGQDSPHKSGQNQQS | 0.000
KTVNGSGSPHSKTQSQQT | 0.000

same assay, conditions: NGS fold-enrichment, NHP heart, relative to AAV9 control

Sequence | Fold Enrichment relative to AAV9, Heart (NHP) [fold]
KTIDGGGSPHSKAQNKQT | 0.000
KTTNGQDSPHKSGQNQQS | 0.037
KTVNGSGSPHSKTQSQQT | 0.726

same assay, conditions: NGS fold-enrichment, NHP liver DNA, relative to AAV9 control

Sequence | Fold Enrichment relative to AAV9, Liver DNA (NHP) [fold]
KTIDGGGSPHSKAQNKQT | 0.477
KTTNGQDSPHKSGQNQQS | 0.079
KTVNGSGSPHSKTQSQQT | 0.340

same assay, conditions: NGS fold-enrichment, NHP liver RNA, relative to AAV9 control

Sequence | Fold Enrichment relative to AAV9, Liver RNA (NHP) [fold]
KTIDGGGSPHSKAQNKQT | 0.000
KTTNGQDSPHKSGQNQQS | 0.000
KTVNGSGSPHSKTQSQQT | 0.000

same assay, conditions: NGS fold-enrichment, NHP muscle, relative to AAV9 control

Sequence | Fold Enrichment relative to AAV9, Muscle (NHP) [fold]
KTIDGGGSPHSKAQNKQT | 0.000
KTTNGQDSPHKSGQNQQS | 0.043
KTVNGSGSPHSKTQSQQT | 0.000

same assay, conditions: NGS fold-enrichment, RNA, brain of NHPs, relative to AAV9 control

Sequence | Fold Enrichment relative to AAV9, Brain (NHP) [fold]
KTIDGGGSPHSKAQNKQT | 85.019
KTINGSGSPHSKAQYQHA | 64.435
KTINGSGSPHSKSQNQHI | 59.438
KTVNGSGSPHSKTQSQQT | 115.086

same assay, conditions: NGS fold-enrichment, heart of NHPs, relative to AAV9 control

Sequence | Fold Enrichment relative to AAV9, Heart (NHP) [fold]
KTIDGGGSPHSKAQNKQT | 0.000
KTINGSGSPHSKAQYQHA | 0.000
KTINGSGSPHSKSQNQHI | 0.099
KTVNGSGSPHSKTQSQQT | 0.726

same assay, conditions: NGS fold-enrichment, liver DNA of NHPs, relative to AAV9 control

Sequence | Fold Enrichment relative to AAV9, Liver DNA (NHP) [fold]
KTIDGGGSPHSKAQNKQT | 0.477
KTINGSGSPHSKAQYQHA | 0.097
KTINGSGSPHSKSQNQHI | 0.108
KTVNGSGSPHSKTQSQQT | 0.340

same assay, conditions: NGS fold-enrichment, liver RNA of NHPs, relative to AAV9 control

Sequence | Fold Enrichment relative to AAV9, Liver RNA (NHP) [fold]
KTIDGGGSPHSKAQNKQT | 0.000
KTINGSGSPHSKAQYQHA | 0.993
KTINGSGSPHSKSQNQHI | 0.111
KTVNGSGSPHSKTQSQQT | 0.000

same assay, conditions: NGS fold-enrichment, muscle of NHPs, relative to AAV9 control

Sequence | Fold Enrichment relative to AAV9, Muscle (NHP) [fold]
KTIDGGGSPHSKAQNKQT | 0.000
KTINGSGSPHSKAQYQHA | 0.024
KTINGSGSPHSKSQNQHI | 0.000
KTVNGSGSPHSKTQSQQT | 0.000

same assay, conditions: NHP DRG; relative to AAV9 control

Sequence | Fold Enrichment relative to AAV9, DRG (NHP) [fold]
KTDRTSGSPHSKAQNQQT | 0.000
KTINGSGSPHSKAQVPPT | 0.000
KEVVGSGSPHSKAQNQQT | 0.000
KTINGSGSPHSKAQLHHT | 0.025
KTEDLSGSPHSKAQNQQT | 0.000
KAINRSGSPHSKAQDQQT | 0.000
KTINGSGSPHSKLKSQQT | 0.000
KSINGGGSPHSKAQYQQT | 0.000

same assay, conditions: NHP heart; relative to AAV9 control

Sequence | Fold Enrichment relative to AAV9, Heart (NHP) [fold]
KTDRTSGSPHSKAQNQQT | 0.000
KTINGSGSPHSKAQVPPT | 0.012
KEVVGSGSPHSKAQNQQT | 0.000
KTINGSGSPHSKAQLHHT | 0.000
KTEDLSGSPHSKAQNQQT | 0.000
KAINRSGSPHSKAQDQQT | 0.000
KTINGSGSPHSKLKSQQT | 0.296
KSINGGGSPHSKAQYQQT | 0.000

same assay, conditions: NHP liver, DNA; relative to AAV9 control

Sequence | Fold Enrichment relative to AAV9, Liver DNA (NHP) [fold]
KTDRTSGSPHSKAQNQQT | 0.160
KTINGSGSPHSKAQVPPT | 0.200
KEVVGSGSPHSKAQNQQT | 0.323
KTINGSGSPHSKAQLHHT | 0.368
KTEDLSGSPHSKAQNQQT | 0.132
KAINRSGSPHSKAQDQQT | 0.036
KTINGSGSPHSKLKSQQT | 1.096
KSINGGGSPHSKAQYQQT | 0.010

same assay, conditions: NHP liver, RNA; relative to AAV9 control

Sequence | Fold Enrichment relative to AAV9, Liver RNA (NHP) [fold]
KTDRTSGSPHSKAQNQQT | 0.062
KTINGSGSPHSKAQVPPT | 0.257
KEVVGSGSPHSKAQNQQT | 0.000
KTINGSGSPHSKAQLHHT | 0.712
KTEDLSGSPHSKAQNQQT | 1.193
KAINRSGSPHSKAQDQQT | 0.000
KTINGSGSPHSKLKSQQT | 1.796
KSINGGGSPHSKAQYQQT | 0.105

same assay, conditions: NHP muscle; relative to AAV9 control

Sequence | Fold Enrichment relative to AAV9, Muscle (NHP) [fold]
KTDRTSGSPHSKAQNQQT | 0.000
KTINGSGSPHSKAQVPPT | 0.000
KEVVGSGSPHSKAQNQQT | 0.000
KTINGSGSPHSKAQLHHT | 0.010
KTEDLSGSPHSKAQNQQT | 0.000
KAINRSGSPHSKAQDQQT | 0.000
KTINGSGSPHSKLKSQQT | 0.000
KSINGGGSPHSKAQYQQT | 0.000

test system: brain; assay: Matured TTM-001 and TTM-002 variants, NGS enrichment in mouse brain; type: in vivo, mice; settings: NGS fold-enrichment, brain of mice, relative to AAV9 control

Sequence | Fold Enrichment relative to AAV9, Brain (Mouse) [fold]
KTIDGGGSPHSKAQNKQT | 55.517
KTINGSGSPHSKAQYQHA | 57.278
KTINGSGSPHSKSQNQHI | 76.025
KTVNGSGSPHSKTQSQQT | 63.248

same assay, conditions: NGS fold-enrichment, mouse brain, relative to AAV9 control

Sequence | Fold Enrichment relative to AAV9, Brain (Mouse) [fold]
KTIDGGGSPHSKAQNKQT | 55.517
KTTNGQDSPHKSGQNQQS | 7.592
KTVNGSGSPHSKTQSQQT | 63.248

same assay, conditions: mouse brain; relative to AAV9 control

Sequence | Fold Enrichment relative to AAV9, Brain (Mouse) [fold]
KTDRTSGSPHSKAQNQQT | 148.498
KTINGSGSPHSKAQVPPT | 90.220
KEVVGSGSPHSKAQNQQT | 116.964
KTINGSGSPHSKAQLHHT | 58.418
KTEDLSGSPHSKAQNQQT | 70.198
KAINRSGSPHSKAQDQQT | 54.631
KTINGSGSPHSKLKSQQT | 95.240
KSINGGGSPHSKAQYQQT | 65.952
